Where “and” joins values, the source holds several entries; their conditions need not be identical. Equal values may be shown once. Inconclusive results and toxic doses are left out.

The subject of this assay is BDF1 mice, P388 leukemia ip, median survival T/C. Description: NCI In Vivo Anticancer Drug Screen. Data for tumor model P388 Leukemia (intraperitoneal) in B6D2F1 (BDF1) mice. The following applies: endpoint: median survival time, higher = longer survival. Put shortly:
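Each value expresses how treatment altered survival: treated-mouse outcome over vehicle-mouse outcome, both groups bearing the transplanted tumour.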

The mark [1] stands for this setting: dose: 6.25 mg/kg/injection, schedule: Q04DX003 (ip), vehicle: Klucel (hydroxypropylcellulose) (HPC).
Where [2] appears, read: dose: 12.5 mg/kg/injection, schedule: Q04DX003 (ip), vehicle: Klucel (hydroxypropylcellulose) (HPC).
The mark [3] stands for this setting: dose: 25.0 mg/kg/injection, schedule: Q01DX009 (ip), vehicle: Klucel (hydroxypropylcellulose) (HPC).
The mark [4] stands for this setting: dose: 25.0 mg/kg/injection, schedule: Q04DX003 (ip), vehicle: Klucel (hydroxypropylcellulose) (HPC).
Where [5] appears, read: dose: 50.0 mg/kg/injection, schedule: Q01DX009 (ip), vehicle: Klucel (hydroxypropylcellulose) (HPC).
Where [6] appears, read: dose: 50.0 mg/kg/injection, schedule: Q04DX003 (ip), vehicle: Klucel (hydroxypropylcellulose) (HPC).
The mark [7] stands for this setting: dose: 100.0 mg/kg/injection, schedule: Q01DX009 (ip), vehicle: Klucel (hydroxypropylcellulose) (HPC).
[8] abbreviates: dose: 100.0 mg/kg/injection, schedule: Q04DX003 (ip), vehicle: Klucel (hydroxypropylcellulose) (HPC).
Setting [9] is: dose: 200.0 mg/kg/injection, schedule: Q04DX003 (ip), vehicle: Klucel (hydroxypropylcellulose) (HPC).
Setting [10] is: dose: 400.0 mg/kg/injection, schedule: Q04DX003 (ip), vehicle: Klucel (hydroxypropylcellulose) (HPC).
The mark [11] stands for this setting: dose: 100.0 mg/kg/injection, schedule: Q01DX009 (ip), vehicle: saline with Tween-80.
Setting [12] is: dose: 200.0 mg/kg/injection, schedule: Q01DX009 (ip), vehicle: saline with Tween-80.
The mark [13] stands for this setting: dose: 50.0 mg/kg/injection, schedule: Q01DX009 (ip), vehicle: saline with Tween-80.
[14] abbreviates: dose: 50.0 mg/kg/injection, schedule: Q04DX003 (ip), vehicle: saline with Tween-80.
Setting [15] is: dose: 100.0 mg/kg/injection, schedule: Q04DX003 (ip), vehicle: saline with Tween-80.
Where [16] appears, read: dose: 200.0 mg/kg/injection, schedule: Q04DX003 (ip), vehicle: saline with Tween-80.
[17] abbreviates: dose: 400.0 mg/kg/injection, schedule: Q04DX003 (ip), vehicle: saline with Tween-80.
The mark [18] stands for this setting: dose: 100.0 mg/kg/injection, schedule: Q04DX003 (ip), vehicle: other.
Where [19] appears, read: dose: 200.0 mg/kg/injection, schedule: Q04DX003 (ip), vehicle: other.
The mark [20] stands for this setting: dose: 100.0 mg/kg/injection, schedule: Q04DX003 (ip), vehicle: saline.
Setting [21] is: dose: 200.0 mg/kg/injection, schedule: Q01DX009 (ip), vehicle: Klucel (hydroxypropylcellulose) (HPC).
The mark [22] stands for this setting: dose: 200.0 mg/kg/injection, schedule: Q04DX003 (ip), vehicle: saline.
Setting [23] is: dose: 400.0 mg/kg/injection, schedule: Q01DX009 (ip), vehicle: Klucel (hydroxypropylcellulose) (HPC).
Where [24] appears, read: dose: 400.0 mg/kg/injection, schedule: Q04DX003 (ip), vehicle: saline.

`CC1(C)N=C(N)N=C(N)N1c1ccc(OCc2ccc(C(=O)Nc3cccc(S(=O)(=O)F)c3)cc2)c(Cl)c1`: the T/C by setting is: (dose: 6.25 mg/kg/injection, schedule: Q01DX009 (ip), vehicle: Klucel (hydroxypropylcellulose) (HPC)) 206 % of control; under setting [1], 163 % of control; (dose: 12.5 mg/kg/injection, schedule: Q01DX009 (ip), vehicle: Klucel (hydroxypropylcellulose) (HPC)) 247 % of control; under setting [2], 162 % of control and 184 % of control; under setting [3], 308 % of control; under setting [4], 186 % of control and 223 % of control. The T/C by setting is: under setting [5], 110 % of control; under setting [6], 263 % of control and 189 % of control; under setting [7], 95 % of control; under setting [8], 95 % of control and 119 % of control.

Consider `N#CC(=C1C=CC(=NO)C=C1)c1ccc(Cl)cc1`, for which the T/C runs as follows: under setting [3], 114 % of control; under setting [4], 102 % of control; under setting [5], 114 % of control; under setting [6], 98 % of control; under setting [7], 117 % of control; under setting [8], 110 % of control. The T/C runs as follows: under setting [9], 122 % of control; under setting [10], 113 % of control.

Take `COC(=O)C(Sc1ccc(Cl)cc1)C1SC(=S)N(C)C1=O` (configuration not stated): the T/C was 118 % of control under setting [11] and 92 % of control under setting [12].

Consider `COC1=C(N)C(=O)c2nc(-c3nc(C=O)c(C)c(-c4ccc(OC)c(OC)c4O)c3N)ccc2C1=O`, for which the T/C was 104 % of control (dose: 0.8 mg/kg/injection, schedule: Q01DX009 (ip), vehicle: dioxane); 122 % of control (dose: 1.05 mg/kg/injection, schedule: Q01DX009 (ip), vehicle: dioxane); 99 % of control (dose: 1.55 mg/kg/injection, schedule: Q01DX009 (ip), vehicle: dioxane); 107 % of control (dose: 2.55 mg/kg/injection, schedule: Q01DX009 (ip), vehicle: dioxane); 104 % of control (dose: 3.05 mg/kg/injection, schedule: Q01DX009 (ip), vehicle: dioxane); 109 % of control (dose: 4.05 mg/kg/injection, schedule: Q01DX009 (ip), vehicle: dioxane). Further, under “dose: 5.05 mg/kg/injection, schedule: Q01DX009 (ip), vehicle: dioxane”, the T/C was 118 % of control.

Take `COc1cccc2c1C(=O)c1c(O)c3c(c(O)c1C2=O)C[C@@](O)(C(=O)CO)C[C@@H]3OC1CC(NC(=S)Nc2ccc(F)cc2)C(O)C(C)O1` (some centres not stated): the T/C was 90 % of control (dose: 6.25 mg/kg/injection, schedule: Q01DX009 (ip), vehicle: saline); 150 % of control (dose: 25.0 mg/kg/injection, schedule: Q01DX009 (ip), vehicle: saline); 106 % of control (dose: 50.0 mg/kg/injection, schedule: Q01DX009 (ip), vehicle: saline); 122 % of control (dose: 100.0 mg/kg/injection, schedule: Q01DX009 (ip), vehicle: saline).

Regarding `O=c1[nH]ccc2c(O)cccc12`, the T/C is 96 % of control under setting [13]; 100 % of control under setting [14]; 92 % of control under setting [11]; 95 % of control under setting [15]; 96 % of control under setting [12]; 91 % of control under setting [16].

In the case of `COc1ccc(/C=N/n2c(=O)[nH]nc(C)c2=O)c(OC)c1OC`, the T/C by setting is: under setting [11], 100 % of control; under setting [12], 122 % of control; (dose: 400.0 mg/kg/injection, schedule: Q01DX009 (ip), vehicle: saline with Tween-80) 95 % of control.

In the case of `COC(=O)C(CSCc1ccccc1)NC(=O)CCNC(=O)OCc1ccccc1` (configuration not stated), the T/C by setting is: (dose: 1.56 mg/kg/injection, schedule: Q04DX003 (ip), vehicle: Klucel (hydroxypropylcellulose) (HPC)) 100 % of control; (dose: 3.13 mg/kg/injection, schedule: Q04DX003 (ip), vehicle: Klucel (hydroxypropylcellulose) (HPC)) 104 % of control; under setting [1], 113 % of control; under setting [2], 104 % of control; (dose: 12.5 mg/kg/injection, schedule: Q04DX003 (ip), vehicle: saline with Tween-80) 93 % of control; (dose: 25.0 mg/kg/injection, schedule: Q04DX003 (ip), vehicle: saline with Tween-80) 102 % of control. Further, the T/C reads like this: under setting [14], 100 % of control; under setting [15], 107 % of control; under setting [16], 94 % of control; under setting [17], 94 % of control.

For `O=Cc1csc2ncccc12`, the T/C is 91 % of control under setting [15], 100 % of control under setting [16] and 95 % of control under setting [17].

`CN(C)c1ccc(C(=C2C=CC(=[N+](C)C)C=C2)c2ccc(N(C)C)cc2)cc1`: the T/C is 107 % of control (dose: 0.78 mg/kg/injection, schedule: Q01DX009 (ip), vehicle: saline); 121 % of control (dose: 1.56 mg/kg/injection, schedule: Q01DX009 (ip), vehicle: saline); 122 % of control (dose: 1.56 mg/kg/injection, schedule: Q04DX003 (ip), vehicle: saline); 86 % of control (dose: 3.12 mg/kg/injection, schedule: Q04DX003 (ip), vehicle: saline).

Take `CC(=O)Oc1cc([N+](=O)[O-])ccc1C(=O)O`: the T/C by setting is: under setting [15], 104 % of control; under setting [16], 108 % of control; under setting [17], 100 % of control.

As for `CCC(C)C(=O)OC1C(=O)OC2CC3C(C)=CC(=O)C(O)C3(C)C3C4(O)OCC23C1C(C)C4O` (configuration not stated), the T/C was 117 % of control (dose: 0.06 mg/kg/injection, schedule: Q01DX009 (ip), vehicle: saline with Tween-80); 121 % of control (dose: 0.25 mg/kg/injection, schedule: Q01DX009 (ip), vehicle: saline); 111 % of control (dose: 1.0 mg/kg/injection, schedule: Q01DX009 (ip), vehicle: saline); 124 % of control (dose: 2.0 mg/kg/injection, schedule: Q01DX009 (ip), vehicle: saline); 95 % of control (dose: 8.0 mg/kg/injection, schedule: Q01DX009 (ip), vehicle: saline with Tween-80).

In the case of `O=[N+]([O-])c1ccc(C(F)(F)F)cc1`, the T/C by setting is: (dose: 25.0 mg/kg/injection, schedule: Q01DX009 (ip), vehicle: other) 109 % of control; (dose: 50.0 mg/kg/injection, schedule: Q01DX009 (ip), vehicle: other) 104 % of control; (dose: 50.0 mg/kg/injection, schedule: Q04DX003 (ip), vehicle: other) 95 % of control; (dose: 100.0 mg/kg/injection, schedule: Q01DX009 (ip), vehicle: other) 113 % of control; under setting [18], 100 % of control; under setting [19], 100 % of control.

Take `O=C(O)c1ccc(SSc2ccc(C(=O)O)cn2)nc1`: the T/C reads like this: under setting [7], 92 % of control and 104 % of control; under setting [8], 100 % of control; under setting [20], 118 % of control; under setting [21], 109 % of control and 119 % of control; under setting [9], 100 % of control; under setting [22], 109 % of control. Moreover, the T/C runs as follows: under setting [23], 107 % of control and 109 % of control; under setting [10], 100 % of control; under setting [24], 113 % of control.

Consider `N#CC1OC(COC(=O)c2ccccc2)C(O)C1O` (configuration not stated), for which the T/C runs as follows: under setting [13], 101 % of control; under setting [11], 94 % of control; under setting [12], 88 % of control.

Consider `COC(=O)C(C)CN1CC(C)OC(C)C1` (configuration not stated), for which the T/C under setting [20] was 113 % of control, the T/C under setting [22] is 100 % of control and the T/C under setting [24] is 100 % of control.

For `CCCNC(=O)NO`, the T/C runs as follows: under setting [7], 119 % of control; under setting [18], 87 % of control; under setting [21], 104 % of control; under setting [19], 104 % of control; under setting [23], 114 % of control; (dose: 400.0 mg/kg/injection, schedule: Q04DX003 (ip), vehicle: other) 104 % of control.

(Values after PubChem BioAssay AID328 (DTP/NCI, 2004).)
